Source: patent US8175815B2, “Method for assessing absorption properties of low solubility compounds” (F. Hoffmann-La Roche AG, priority 2006, dated 2012)
Values after ≈ are worked out from the molar mass of the structure shown. Values joined by “and” are separate entries in the source; they are usually repeats but may differ in a detail not shown here. Identical values can stand only once. Like-named read-outs stand apart in the source and are kept apart here.

Experiments:
[1] = equilibrium solubility-pH, direct-UV microtitre plate (μSOL Evolution) with and without excipients; settings: for pKa at 18 h / solubility at 18 h: aqueous universal buffer (pION); for pKa at 18 h: saturated drug suspension, pKa^APP ± SD; for solubility at 18 h: 25 °C, kinetic from dmso stock
[2] = flux function combining permeability and solubility measurement results; settings: for flux increase factor: 1% HP-β-CD vs excipient-free; for net flux effect due to 1% HP-β-CD: pH 5.0, 6.2, 7.4, FIG. 13
[3] = Double-Sink PAMPA permeability with and without excipients
[4] = mice; +HP-β-CD / no excip.
[5] = mice, oral, cited from earlier work
physchem [6] = assay: physchem
[7] = 18 h
physchem [8] = assay: physchem; remark: listed apart in the source
[9] = PAMPA, 30 min, 50 μM
[10] = PAMPA
[11] = dogs, gel caps, 200 mg/kg; cited from earlier work
[12] = cited from earlier work
[13] = buffer + 1% w/v HP-b-CD, * = anticipated salt limit exceeded
[14] = buffer, * = anticipated salt limit exceeded
[15] = apparent/true molecular weight, 40 μm ABL assumed, 0 mM NaTC (first value)
[16] = apparent ionization constant in saturated solution, excipient none
[17] = apparent ionization constant, excipient 3 mM NaTC
[18] = apparent ionization constant, excipient 15 mM NaTC
[19] = apparent ionization constant, excipient 0.1M KCl
[20] = apparent ionization constant, excipient 0.2M KCl
[21] = apparent ionization constant, excipient 1% HP-b-CD
[22] = apparent ionization constant, excipient 1% NMP
[23] = apparent ionization constant, excipient 1% PEG400
[24] = apparent ionization constant, excipient 1% PG
[25] = apparent ionization constant, excipient 5% PEG400
[26] = apparent ionization constant, excipient 5% PG
[27] = apparent ionization constant, excipient […] HP-b-CD
[28] = apparent ionization constant, excipient […] NMP
[29] = apparent ionization constant, excipient […] PEG400
[30] = apparent ionization constant, excipient […] PG

Compound: CCCSc1ccc2nc(NC(=O)OC)[nH]c2c1 [albendazole]
- So^APP ([1]; buffer): 0.88 ± 0.07 µg/mL
- S(pH 7.4) ([1]; buffer + 1% w/v HP-b-CD): 34 μg mL^−1
- So^APP ([1]; buffer + 1% w/v HP-b-CD): 34 ± 1 µg/mL
- S(pH 5.0) [1, 13]: 34 μg mL^−1
- S(pH 6.2) [1, 13]: 34 μg mL^−1
- S(pH 5.0) [1, 14]: 1.0 μg mL^−1
- S(pH 6.2) [1, 14]: 0.89 μg mL^−1
- S(pH 7.4) [1, 14]: 0.88 μg mL^−1
- flux increase factor ([2]; pH 5.0): 3.0
- flux increase factor ([2]; pH 6.2): 3.1
- flux increase factor ([2]; pH 7.4): 3.1
- average flux gain factor ([2]; 1% HP-β-CD, average over pH 5.0, 6.2, 7.4): 3.1
- net flux effect due to 1% HP-β-CD [2]: gains, uniformly at the three pH values of interest
- Po ([3]; buffer): 4.28 ± 1.59 E−04 cm s^−1
- Po ([3]; buffer + 1% w/v HP-b-CD): 3.12 ± 0.30 E−05 cm s^−1
- AUC Ratio [4]: 1.4
- Cmax Ratio [4]: 4.3
- Tmax Ratio [4]: 0.4
- Cmax +HP-β-CD ([5]; HP-β-CD (20% w/v)): 390 ng/mL
- Tmax +HP-β-CD ([5]; HP-β-CD (20% w/v)): 0.33 h
- Cmax no excip. ([5]; suspension of excipient-free drug): 90 ng/mL
- Tmax no excip. [5]: 0.75 h

Compound: CCCCc1oc2ccccc2c1C(=O)c1cc(I)c(OCCN(CC)CC)c(I)c1 [amiodarone]
- net flux effect due to 1% HP-β-CD [2]: cross-over pattern as a function of pH

Compound: COc1ccc(CCN2CCC(Nc3nc4ccccc4n3Cc3ccc(F)cc3)CC2)cc1 [astemizole]
- pKa at 18 h (physchem [6]; pKa^APP ± SD): 9.1 ± 0.5
- So ± SD [7]: 4.0 ± 2.9 µg/mL
- MW*/MW ([3]; 3 mM NaTC (second value)): 5
- MW*/MW ([3]; 15 mM NaTC (third value)): 56000
- MW*/MW [3, 15]: ~1
- pKa (physchem [8]): 5.99 ± 0.06
- PABL 0 mM NaTC [9]: 1080
- PABL 3 mM NaTC [9]: 561
- PABL 15 mM NaTC [9]: 9
- determined ABL thickness hABL [9]: < 50 μm

Compound: Clc1ccccc1C(c1ccccc1)(c1ccccc1)n1ccnc1 [clotrimazole]
- pKa at 18 h (physchem [6]; pKa^APP ± SD): 7.4 ± 1.1
- MW*/MW ([3]; 3 mM NaTC (second value)): 5
- MW*/MW [3, 15]: < 1
- pKa (physchem [8]): 6.02 ± 0.05
- PABL 0 mM NaTC [9]: 2400
- PABL 3 mM NaTC [9]: 604
- determined ABL thickness hABL [9]: < 50 μm

Compound: OCCN(CCO)c1nc(N2CCCCC2)c2nc(N(CCO)CCO)nc(N3CCCCC3)c2n1 [dipyridamole]
- pKa at 18 h [1, 16]: 5.8 ± 0.1
- pKa at 18 h [1, 17]: 5.6 ± 0.1
- pKa at 18 h [1, 18]: 5.2 ± 0.1
- pKa at 18 h [1, 19]: 6 ± 0.1
- pKa at 18 h [1, 20]: 5.9 ± 0.1
- pKa at 18 h [1, 21]: 5.6 ± 0.1
- pKa at 18 h [1, 22]: 5.7 ± 0.1
- pKa at 18 h [1, 23]: 5.9 ± 0.2
- pKa at 18 h [1, 24]: 5.8 ± 0.1
- pKa at 18 h [1, 25]: 6.2 ± 0.1
- pKa at 18 h [1, 26]: 5.8 ± 0.1
- pKa at 18 h [1, 27]: 5.8 ± 0.1
- pKa at 18 h [1, 28]: 5.8 ± 0.1
- pKa at 18 h [1, 29]: 6.8 ± 0.1
- pKa at 18 h [1, 30]: 5.8 ± 0.1
- So ± SD ([1]; excipient 3 mM NaTC): 5.3 ± 0.9 µg/mL
- So^APP ± SD ([1]; excipient 3 mM NaTC): 24 ± 2 µg/mL
- So ± SD ([1]; excipient 15 mM NaTC): 9.9 ± 1.7 µg/mL
- So^APP ± SD ([1]; excipient 15 mM NaTC): 110 µg/mL and 110 ± 5 µg/mL
- So ± SD ([1]; excipient 0.1M KCl): 3.3 ± 0.8 µg/mL
- So^APP ± SD ([1]; excipient 0.1M KCl): 5.2 ± 0.8 µg/mL
- So ± SD ([1]; excipient 0.2M KCl): 3.1 ± 0.7 µg/mL
- So^APP ± SD ([1]; excipient 0.2M KCl): 5.8 ± 0.9 µg/mL
- So ± SD ([1]; excipient 1% HP-b-CD): 3.2 ± 0.7 µg/mL
- So^APP ± SD ([1]; excipient 1% HP-b-CD): 15 ± 1 µg/mL
- So ± SD ([1]; excipient 1% NMP): 2.4 ± 0.7 µg/mL
- So^APP ± SD ([1]; excipient 1% NMP): 8.1 ± 1.5 µg/mL
- So ± SD ([1]; excipient 1% PEG400): 5.0 ± 1.9 µg/mL
- So^APP ± SD ([1]; excipient 1% PEG400): 11 ± 3 µg/mL
- So ± SD ([1]; excipient 1% PG): 2.7 ± 0.2 µg/mL
- So^APP ± SD ([1]; excipient 1% PG): 6.5 ± 0.3 µg/mL
- So ± SD ([1]; excipient 5% PEG400): 13.7 ± 2.4 µg/mL
- So^APP ± SD ([1]; excipient 5% PEG400): 14 ± 1 µg/mL
- So ± SD ([1]; excipient 5% PG): 3.9 ± 0.8 µg/mL
- So^APP ± SD ([1]; excipient 5% PG): 9.8 ± 1.3 µg/mL
- So ± SD ([1]; excipient […] HP-b-CD): 2.8 ± 0.7 µg/mL
- So^APP ± SD ([1]; excipient […] HP-b-CD): 7.1 ± 0.8 µg/mL
- So ± SD ([1]; excipient […] NMP): 2.2 ± 0.6 µg/mL
- So^APP ± SD ([1]; excipient […] NMP): 5.9 ± 1.1 µg/mL
- So^APP ± SD ([1]; excipient […] PEG400): 4.6 ± 1.2 µg/mL
- So ± SD ([1]; excipient […] PG): 2.1 ± 0.3 µg/mL
- So^APP ± SD ([1]; excipient […] PG): 5.8 ± 0.5 µg/mL
- So ± SD ([1]; excipient none): 2.3 ± 0.7 µg/mL
- So^APP ± SD ([1]; excipient none): 6.2 ± 1.1 µg/mL and 6.2 µg/mL
- MW*/MW ([3]; 3 mM NaTC (second value)): 1
- MW*/MW ([3]; 15 mM NaTC (third value)): 1100
- MW*/MW [3, 15]: ~1
- pKa (physchem [8]): 6.22 ± 0.15
- PABL 0 mM NaTC [9]: 941
- PABL 3 mM NaTC [9]: 922
- PABL 15 mM NaTC [9]: 47
- net flux effect due to 1% HP-β-CD ([10]; pH 5): the flux remains unaffected by the excipient

Compound: COc1ccc(Cl)cc1C(=O)NCCc1ccc(S(=O)(=O)NC(=O)NC2CCCCC2)cc1 [glybenclamide]
- pKa at 18 h (physchem [6]; negative shift in the apparent pKa): 1.6
- pKa at 18 h (physchem [6]; pKa^APP ± SD): 4.6 ± 0.1
- n ± SD [7]: 1.1 ± 0.1
- pKa (physchem [8]): 5.75 ± 0.15
- average flux gain factor ([10]; pH 5): 3.1
- flux increase factor ([10]; pH 5): 20.1
- flux increase factor ([10]; pH 6.2): 4.3
- flux decrease factor ([10]; pH 7.4): 3
- Cmax +HP-β-CD [11]: 610 ng/mL
- Cmax no excip. [11]: 83.9 ng/mL
- Tmax +HP-β-CD [11]: 2.5 h
- Tmax no excip. [11]: 4.5 h

Compound: Cc1cccc(Nc2ccccc2C(=O)O)c1C [mefenamic acid]
- solubility at 18 h ([1]; aqueous buffer): 0.021 ± 0.005 µg/mL (≈ 0.087 µM)
- solubility at 18 h ([1]; aqueous with cosolvent or surfactant or cyclodextrin): < 3 µg/mL
- pKa at 18 h [1, 16]: 4.3 ± 0.3
- pKa at 18 h [1, 17]: 5.8 ± 0.1
- pKa at 18 h [1, 18]: 5.7 ± 0.1
- pKa at 18 h [1, 19]: 4.4 ± 0.4
- pKa at 18 h [1, 20]: 4.3
- pKa at 18 h [1, 21]: 5.2 ± 0.1
- pKa at 18 h [1, 22]: 4.4 ± 0.2
- pKa at 18 h [1, 23]: 4.5
- pKa at 18 h [1, 24]: 4 ± 0.3
- pKa at 18 h [1, 25]: 4.5 ± 1.1
- pKa at 18 h [1, 26]: 4
- pKa at 18 h [1, 27]: 4.6 ± 0.1
- pKa at 18 h [1, 28]: 4.1 ± 0.6
- pKa at 18 h [1, 29]: 4.5 ± 0.2
- pKa at 18 h [1, 30]: 4.1 ± 0.3
- So ± SD ([1]; excipient 3 mM NaTC): 0.11 ± 0.03 µg/mL
- So^APP ± SD ([1]; excipient 3 mM NaTC): 1.9 ± 0.4 µg/mL
- So ± SD ([1]; excipient 15 mM NaTC): 0.10 ± 0.03 µg/mL
- So^APP ± SD ([1]; excipient 15 mM NaTC): 1.4 ± 0.3 µg/mL
- So^APP ± SD ([1]; excipient 0.1M KCl): 0.023 ± 0.005 µg/mL
- So^APP ± SD ([1]; excipient 0.2M KCl): 0.021 µg/mL
- So ± SD ([1]; excipient 1% HP-b-CD): 0.61 µg/mL
- So^APP ± SD ([1]; excipient 1% HP-b-CD): 2.9 ± 0.5 µg/mL
- So^APP ± SD ([1]; excipient 1% NMP): 0.062 ± 0.010 µg/mL
- So^APP ± SD ([1]; excipient 1% PEG400): 0.021 µg/mL
- So^APP ± SD ([1]; excipient 1% PG): 0.021 µg/mL
- So^APP ± SD ([1]; excipient 5% PEG400): 0.028 µg/mL
- So^APP ± SD ([1]; excipient 5% PG): 0.056 µg/mL
- So ± SD ([1]; excipient […] HP-b-CD): 0.28 ± 0.02 µg/mL
- So^APP ± SD ([1]; excipient […] HP-b-CD): 0.34 ± 0.02 µg/mL
- So^APP ± SD ([1]; excipient […] NMP): 0.019 ± 0.009 µg/mL
- So^APP ± SD ([1]; excipient […] PEG400): 0.004 ± 0.002 µg/mL
- So^APP ± SD ([1]; excipient […] PG): 0.021 µg/mL
- intrinsic solubility in excipient free buffer ([1]; excipient free): 0.021 µg/mL
- So^APP ± SD ([1]; excipient none): 0.021 ± 0.005 µg/mL
- salt limit (sdiff 3-4 approximation) ([1]; three orders of magnitude above excipient-free intrinsic solubility): 21 µg/mL
- MW*/MW ([3]; 3 mM NaTC (second value)): 3
- MW*/MW ([3]; 15 mM NaTC (third value)): 4
- MW*/MW [3, 15]: 4
- pKa (physchem [8]): 4.39 ± 0.09
- PABL 0 mM NaTC [9]: 782
- PABL 3 mM NaTC [9]: 909
- PABL 15 mM NaTC [9]: 795
- refined ABL thickness [9]: exceeding 75 μm
- net flux effect due to 1% HP-β-CD ([10]; pH 5): In acid solutions, flux is helped by 1% HP-β-CD, but in neutral solutions, there is a net loss

Compound: hydroxypropyl-β-cyclodextrin [HP-β-CD]
- solubility [12]: 450000 µg/mL
